Measured values as given in patent US20070212360A1, “Modulation of mitochondrial oxygen consumption for therapeutic purposes” (priority 2006, published 2007).

Key:
[1] = system: HIF1 targets PDK1, Bnip3, and Bnip3L in RKO and Su.86 human tumor cells; assay: Western blot of HIF1 target proteins in hypoxic tumor cells; format: cell-based; details: RKO and Su.86 cells, 0.5% O2 24 h, 2 ng/ml echinomycin
Experimental: FIG. 7. Inhibition of HIF1 and PDK1 increases oxygen consumption in vitro and in vivo. (a) Western blots of extracts from RKO and Su.86 cells exposed to normoxia (N) or hypoxia (H) (0.5% O2) for 24 h in the presence or absence of 2 ng/ml echinomycin probed for the indicated proteins. (b) Oxygen consumption rates of RKO and RKOShHIF1α cells (left) and Su.86 cells (right) after 24 h treatment with normoxia or hypoxia (0.5% O2) with or without 2 ng/ml echinomycin. Data are normalized to normoxic samples. (c) Relative oxygen consumption of RKO cells treated with hypoxia (0.5% O2) for 24 h in the presence of increasing concentrations of echinomycin. (d) Oxygen consumption rates of freshly explanted tumor tissue from RKO (n=16) and RKOShHIF1α (n=8) xenografts. (e) Oxygen consumption rates of RKO and RKOShHIF1 tumors from mice treated with 0.12 mg/kg echinomycin ip 24 h prior (n=8), or 50 mg/kg DCA ip 4 h prior (n=8). […]
Western blots. In brief, cells were harvested directly in RIPA buffer containing protease inhibitors, protein concentrations were quantified (Pierce), 25-50 μg of total protein was electrophoresed on a reducing Tris-Tricine gel, and electroblotted to PVDF membrane. […] Primary antibodies were detected with species-specific secondary antibodies labeled with Alkaline Phosphatase (Vector labs) (1:3000) and visualized with ECF (Amersham) on a Storm 860 phosphoimager (Molecular Devices).

[2] = system: RKO and RKOShHIF1α tumors; assay: Tumor hypoxia by pimonidazole immunofluorescence; format: in vivo, mouse
Experimental: FIG. 9. Increasing oxygen consumption by inhibition of HIF increases tumor hypoxia. (a-d) Pimonidazole staining of tumor sections from RKO (a,b) and RKOShHIF1α (c,d) tumors 24 h after treatment with PBS (a,c) or echinomycin (b,d). The tumor section is outlined in white, pimonidazole staining is shown in green, and the necrotic areas and cutting artifacts are shown in gray. (e) The mean hypoxic fraction of RKO and RKOShHIF1α tumors 24 h after treatment with PBS or echinomycin (n=4-5 tumors per group). Error bars represent the standard error of the mean. (*) indicates a significant difference (p<0.05).
Detection of tumor hypoxia by pimonidazole immunofluorescence. Mice bearing 100-300 mm^3 subcutaneous RKO and RKOshHIF tumors on either flank were treated with 0.12 mg/kg echinomycin ip or saline control, and 24 h later they were injected with the hypoxia marker drug pimonidazole (60 mg/kg ip) (Millipore, Temecula, Calif.). Three hours after pimonidazole injection, tumors were excised, and frozen in Tissue-Tek O.C.T. compound. Frozen sections (10 μm thick) from the center regions of tumors were cut, air dried, and fixed for 15 min in acetone at 4 C. Slides were then air dried, rehydrated in PBS, and blocked for 30 min in 4% FBS, 5% non-fat milk, and 0.1% Triton X-100 in PBS. Slides were incubated for 1 hr at room temperature with a FITC-conjugated monoclonal antibody against pimonidazole (Millipore) diluted 1:20 in blocking solution. Slides were washed, counterstained with 50 nM propidium iodide (PI), and mounted under a coverslip in Vectashield medium (Vector Labs, Burlingame, Calif.).
FITC and Pi fluorescent signals for entire tumor sections (one section per tumor) were acquired using a 4× objective lens on a Nikon Eclipse E800 microscope equipped with a motorized scanning stage, a 12-bit QImaging camera (OImaging, Burnaby, Canada), and Bioquant imaging software (Bioquant, Nashville, Tenn.). Acquisition parameters were held constant for all samples. ImageJ software (NIH, Bethesda, Md.) was used to analyze the resulting tiled images. […]

[3] = system: RKO and RKOShHIF1α tumors; assay: Oxygen consumption of freshly explanted RKO tumor xenografts; format: in vivo, mouse; details: 0.12 mg/kg echinomycin ip 24 h prior; vs PBS controls
Experimental: FIG. 7. Inhibition of HIF1 and PDK1 increases oxygen consumption in vitro and in vivo. (a) Western blots of extracts from RKO and Su.86 cells exposed to normoxia (N) or hypoxia (H) (0.5% O2) for 24 h in the presence or absence of 2 ng/ml echinomycin probed for the indicated proteins. (b) Oxygen consumption rates of RKO and RKOShHIF1α cells (left) and Su.86 cells (right) after 24 h treatment with normoxia or hypoxia (0.5% O2) with or without 2 ng/ml echinomycin. Data are normalized to normoxic samples. (c) Relative oxygen consumption of RKO cells treated with hypoxia (0.5% O2) for 24 h in the presence of increasing concentrations of echinomycin. (d) Oxygen consumption rates of freshly explanted tumor tissue from RKO (n=16) and RKOShHIF1α (n=8) xenografts. (e) Oxygen consumption rates of RKO and RKOShHIF1 tumors from mice treated with 0.12 mg/kg echinomycin ip 24 h prior (n=8), or 50 mg/kg DCA ip 4 h prior (n=8). Data is normalized to PBS treated controls (n=8-16). (*) indicate a significant difference relative to control (p<0.05).
Cell lines and tumor xenografts. […]
Oxygen consumption measurements. […] Oxygen consumption was measured in a 0.5 ml volume using an Oxytherm electrode unit (Hansatech, Norfolk, UK). […] Oxygen consumption was measured as above in a 1 ml volume and normalized to tissue weight.

[4] = 24 h after 0.12 mg/kg echinomycin ip vs vehicle

SMILES: CS[C@H]1SC[C@H]2C(=O)N(C)[C@@H](C(C)C)C(=O)OC[C@@H](NC(=O)c3cnc4ccccc4n3)C(=O)N[C@@H](C)C(=O)N(C)[C@@H]1C(=O)N(C)[C@@H](C(C)C)C(=O)OC[C@@H](NC(=O)c1cnc3ccccc3n1)C(=O)N[C@@H](C)C(=O)N2C [echinomycin]
- hypoxic induction of PDK1, Bnip3, and Bnip3L (immunoblot) [1]: blocked
- extent of hypoxia in RKOShHIF1α tumors (pimonidazole) [2, 4]: no significant effect
- hypoxic fraction of RKO tumors (pimonidazole) [2, 4]: increase in the hypoxic fraction
- extent of necrosis in tumor sections ([2]; four treatment groups (RKO, RKOShHIF1α; echinomycin or vehicle)): no difference
- tumor oxygen consumption, RKO wildtype tumors [3]: significantly increased
- tumor oxygen consumption, RKOShHIF1 tumors [3]: no effect
